Test results from PMC4099174 (Journal of Medicinal Chemistry, 2014).
Read-outs that look alike come from different tables or passages of the source.

Experiments:
[1] = system: Bloodstream Trypanosoma brucei brucei Lister 427; assay: Trypanosome cell growth dose–response assay (resazurin viability test); type: cell-based
[2] = system: HepG2 cell line; details: for Selectivity: Table 2, Selectivity = TC50/EC50
[3] = system: Bloodstream form culture of T. b. brucei; assay: Cell cycle analysis by FACS (propidium iodide); type: cell-based, Trypanosoma brucei brucei; details: concentration twice the EC50, 18 h
Procedure: For cell cycle analysis, samples (1.5 × 10^6 cells) were collected, centrifuged (1400g at 4 °C for 5 min), and washed in trypanosome dilution buffer (TDB). The cell pellets were gently suspended in 50 μL of TDB and permeabilized by adding 1 μL of saponin (25 mg/mL) for 3 min. It was then mixed with another 450 μL of TDB. RNase and propidium iodide (PI) were added to the suspension at final concentrations of 10 and 20 μg/mL, respectively, and the samples were incubated at room temperature for 30 min and then stored at 4 °C. The DNA content of PI-stained cells and the percentage of cells in each phase of the cell cycle (10 000 cells per sample) were analyzed with a Becton Dickinson FACSCalibur flow cytometer (BD Biosciences) using BD CellQuest Pro version 4.0.2 software.
Figure S3. Cell Cycle analysis of parasites upon dosage with NVP-BEZ235 derivative.
Bloodstream form culture of T. b. brucei was subjected to different drugs and analyzed by
Fluorescencecactivated cell sorter (FACS) for DNA content stained by propidium iodide (PI).
Cell cultures were incubated during 18 h with various NVPcBEZ235 derivatives using DMSO as
a control treatment. Mean ± SD of three independent experiments are shown.

[4] = system: phosphorylated PIs (PIP, PIP3) in T. brucei cells; assay: Phospholipidomics analysis (ES-MS of lipid extracts); type: cell-based, Trypanosoma brucei; details: 200 nM, 12 h; negative ion mode scans 950–1300 m/z
Description: We originally selected 1 to investigate its potential as an trypanocidal agent on the basis of its activity as a PI3K/mTOR inhibitor in mammalian cells and the fact that PI3K activity is essential for the bloodstream form of the T. brucei parasite.[25] In the interest of elucidating the potential mechanism of action against T. brucei cells, we performed a lipidomic analysis to discern if PI kinases are likely targets of these analogues. Lipid extracts of cells grown in the presence of the best compounds at sublethal doses (200 nM) for 12 h were analyzed by ES-MS. […] There were no significant differences in the phosphatidylcholine (PC) and sphingomylein (SM) species between the control and cells grown in the presence of the other compounds (Figure S1). […] Alternatively, as is often the case, changes in the lipid profile could be a reflection in the cells succumbing to (or adapting to) a defect in a major cellular process, such as endo- or exocytosis or cell cycle arrest.
Because these compounds are thought to target PI3K, negative ion mode scans between 950 and 1300 m/z were conducted to focus upon singly and multiply phosphorylated PIs.
Total lipids from mid log phase cells were extracted by the method of Bligh and Dyer.[30] Briefly, mid log phase cells were collected by centrifugation (800g, 10 min), washed with PBS, resuspended in 100 μL of TDB-glucose, transferred to a glass tube containing 375 μL of 1:2 (v/v) CHCl3/MeOH, and vortexed. The sample was agitated vigorously for a further 10–15 min. The sample was made biphasic by the addition of 125 μL of CHCl3 and vortexed, and then 125 μL of H2O was added. The sample was vortexed again and centrifuged at 3000g at rt for 10 min. The lower (organic) phase was transferred into a new glass vial, and the aqueous phase was re-extracted with the fresh lower phase. The resultant lower phase lipid extract was dried under a stream of nitrogen and stored at 4 °C.
Lipid extracts were dissolved in 15 μL of CHCl3/MeOH (1:2) and 15 μL of acetonitrile/isopropanol/water (6:7:2) and analyzed with a triple quadrupole mass spectrometer (Absceix 4000 QTrap) equipped with a nanoelectrospray source. […] The lipid extracts were analyzed in both positive and negative ion modes using a capillary voltage of 1.25 kV. […] Tandem mass spectra (MS/MS) were obtained with collision energies as follows: 35–45 V, PC/SM in positive ion mode, parent-ion scanning of m/z 184; 35–55 V, PI in negative ion mode, parent-ion scanning of m/z 241; 35–65 V, PE in negative ion mode, parent-ion scanning of m/z 196; 20–35 V, PS in negative ion mode, neutral loss scanning of m/z 87; and 40–90 V, for all glycerophospholipids (including PA, PG, and cardiolipin) detected by precursor scanning for m/z 153 in negative ion mode. […]

[5] = ChromlogD assay; type: physicochemical; details: pH 7.4
Procedure: page 13: PHYSICOCHEMICAL PROPERTIES ASSAYS […] phosphate buffered saline, equilibrated for 1 hour at room temperature, filtered through Millipore […] filter plates (MSSL BPC). The filtrate is quantified by suitably calibrated flow injection ChemicLuminescent Nitrogen Detection.1 The standard error of the CLND solubility […] DMSO stock solution. GSK inchouse Artificial Membrane Permeability Assay: […] in 1% cholesterol decane solution was applied to a […], 0.4um, PCF culture plate. 250 μL and 100 μL 50 mM phosphate buffer pH 7.4 with 0.5% […] applied to the […] in DMSO was added to the donor compartment. The assay was incubated at RT for 3 hours. Samples from both donor and receiver compartments were analyzed by HPLC with UV detection at 215 and 254 nm and permeability was calculated. The permeability (logPapp) measuring how fast molecules pass through the black lipid membrane is expressed in nm/s. ChromlogD assay. The Chromatographic Hydrophobicity Index (CHI)2 values were measured using reversed phase HPLC column (Luna C18 (2),Phenomenex, UK) with fast acetonitrile gradient at starting mobile phase of pH = 7.4. CHI values are derived directly from the gradient retention times by using a calibration line obtained for standard compounds. The CHI value approximates to the volume % organic concentration when the compound elutes. CHI is linearly transformed into ChromlogD by leastcsquare fitting of experimental CHI values to calculated ClogP values for over 20K research compounds using the following formula: ChromlogD = 0.0857CHIc2.00. The average error of the assay is ±3 CHI unit or ±0.25 ChromlogD. S13

[6] = system: bloodstream form of T. brucei; assay: Transferrin uptake (receptor-mediated endocytosis); type: cell-based, Trypanosoma brucei; details: concentration twice the EC50, 18 h
Description: Highly efficient and rapid endocytosis is one of the most important cellular processes for this infective parasite to survive and multiply within the bloodstream of the host, and the activity of TbPI3KIII is essential for this process.[25] To gain insight on the possible target(s) of our compounds, we carried out transferrin uptake experiments to measure receptor-mediated endocytosis after drug treatment. […] Compound 16e induced a phenotype defective in endocytosis (Figure 3); however, the PIP3 molecular species identified (42:7-9) was not the same PIP3 molecular species identified in WT cells (44:9-12).
Two million trypanosomes were harvested and washed with TDB-glucose plus 1% BSA, resuspended in 250 μL in the same buffer, and incubated for 10 min at 37 °C prior to the addition of 5 μg of AlexaFluor 488-conjugated human holo-Tf (Invitrogen). Incubations were carried out for 0 (no Tf) or 3 min at 37 °C, after which cells were immediately fixed in 4 °C in 1% PFA diluted in cold PBS for at least 1 h. Parasites were finally washed twice with PBS and analyzed with a Becton Dickinson FACSCalibur flow cytometer (BD Biosciences) using BD CellQuest Pro version 4.0.2 software.

[7] = Table 2, average of two replicates, read-out: T brucei EC50
[8] = Table 4, measured value (outside parentheses)

| Compound | cell cycle progression [3] | phosphorylated PI (PIP) levels vs control cells [4] | transferrin uptake / endocytosis [6] | also measured |
| --- | --- | --- | --- | --- |
| 1-(4-((4-Methylpiperazin-1-yl)methyl)phenyl)-8-(pyridin-4-yl)-1H-imidazo[4,5-c]quinolin-2(3H)-one [Compound 16j] |  |  |  | EC50 [1, 7]: 3.35 µM; HepG2 TC50 [2]: >7.6 µM |
| 1-Methyl-8-(pyridin-4-yl)-1H-imidazo[4,5-c]quinolin-2(3H)-one [Compound 16k] |  |  |  | EC50 [1, 7]: 3.27 µM; HepG2 TC50 [2]: >20 µM |
| Cn1c(=O)n(-c2ccc(C(C)(C)C#N)cc2)c2c3cc(-c4cnc5ccccc5c4)ccc3ncc21 [Compound 1, NVP-BEZ235, reference compound] | did not significantly alter cell cycle progression | almost complete absence of all phosphorylated PIs | inhibited endocytosis dramatically | chromatographic logD [5]: 4.75 |
| Cn1cc(-c2ccc3ncc4c(c3c2)n(-c2ccc(C(C)(C)C#N)cc2)c(=O)n4C)cn1 [Compound 4e, 2-Methyl-2-(4-(3-methyl-8-(1-methyl-1H-pyrazol-4-yl)-2-oxo-2,3-dihydro-1H-imidazo[4,5-c]quinolin-1-yl)phenyl)propanenitrile] | reducing the proportion of cells in G1 and increasing multinucleated cells | significant (albeit incomplete) reduction in PIP levels | did not significantly reduce transferrin endocytosis |  |
| Cn1c(=O)n(-c2ccccc2)c2c3cc(-c4cnc5ccccc5c4)ccc3ncc21 [Compound 16c, 3-Methyl-1-phenyl-8-(quinolin-3-yl)-1H-imidazo[4,5-c]quinolin-2(3H)-one] |  |  |  | Selectivity [2]: >1000 |
| Cn1c(=O)n(-c2ccc(CC#N)cc2)c2c3cc(-c4ccncc4)ccc3ncc21 [Compound 16d, 2-(4-(3-Methyl-2-oxo-8-(pyridin-4-yl)-2,3-dihydro-1H-imidazo[4,5-c]quinolin-1-yl)phenyl)acetonitrile] |  |  |  | Selectivity [2]: >560 |
| Cc1ccc(-n2c(=O)n(C)c3cnc4ccc(-c5ccncc5)cc4c32)cc1 [Compound 16e, 3-Methyl-8-(pyridin-4-yl)-1-(p-tolyl)-1H-imidazo[4,5-c]quinolin-2(3H)-one] | did not significantly alter cell cycle progression | significant (albeit incomplete) reduction in PIP levels | inhibited endocytosis dramatically | chromatographic logD [5, 8]: 3.5 |
| COc1ccc(-n2c(=O)n(C)c3cnc4ccc(-c5ccncc5)cc4c32)cc1 [Compound 16g, 1-(4-Methoxyphenyl)-3-methyl-8-(pyridin-4-yl)-1H-imidazo[4,5-c]quinolin-2(3H)-one] | did not significantly alter cell cycle progression | almost complete absence of all phosphorylated PIs | inhibited endocytosis dramatically | chromatographic logD [5, 8]: 3.03 |
| CN(C)c1ccc(-n2c(=O)n(C)c3cnc4ccc(-c5ccncc5)cc4c32)cc1 [Compound 16h, 1-(4-(Dimethylamino)phenyl)-3-methyl-8-(pyridin-4-yl)-1H-imidazo[4,5-c]quinolin-2(3H)-one] |  |  |  | HepG2 TC50 ([2]; human, 48 h): 2.34 µM |
| Cn1c(=O)n(-c2ccc(N3CCOCC3)cc2)c2c3cc(-c4ccncc4)ccc3ncc21 [Compound 16i, 3-Methyl-1-(4-morpholinophenyl)-8-(pyridin-4-yl)-1H-imidazo[4,5-c]quinolin-2(3H)-one] |  |  |  | Selectivity [2]: >24 |
| CC(C)(C#N)c1ccc(Nc2c(N)cnc3ccc(-c4cnc5ccccc5c4)cc23)cc1 [Compound 20, 2-(4-((3′-Amino-[3,6′-biquinolin]-4′-yl)amino)phenyl)-2-methylpropanenitrile] |  |  |  | EC50 ([1]; Trypanosoma brucei, read-out: EC50 against T. brucei): 0.767 µM |
